Data published in patent US10676780B2, “Stabilisation and isolation of extracellular nucleic acids” (QIAGEN GmbH, priority 2011, dated 2020).
Where a SMILES comes first, the peptide text is derived from it. The star is where a group is joined. Cbz = O=C(OCc1ccccc1)*; CH2Cl = ClC*; CH2F = FC*

Columns and labels:
Bax-mediated apoptosis = conditions: cited from earlier work
MCF7 breast cancer cells = conditions: at 20 μM; cited from earlier work
whole blood samples [1] = experiment: DNA size distribution by chip gel electrophoresis of DNA isolated from plasma of stored whole blood; type: cell-based; conditions: for ladder-like pattern of DNA bands (release/fragmentation of genomic DNA): 20 μM end concentration in 10 ml blood, stored at RT, day 3 and day 7, vs DMSO control and K2E blood; for genomic DNA release/fragmentation: day 7, RT
Experimental: A test system was designed, wherein cell-containing biological samples, here whole blood samples, were incubated at room temperature (RT) for up to 6 or 7 days. Therein, the sample stabilizing properties of the additives of the present invention were tested on day 0, day 3 and day 6/7 the samples. The samples were processed according to the following protocols, where applicable (for details, see also the specific examples in the results section):
To separate the blood plasma from the whole blood, the blood samples were centrifuged for 15 min at 5000 rpm, and the obtained plasma samples were again centrifuged for 10 min at 16.000×g at 4° C.
(§1) The circulating, extracellular nucleic acids were purified from the obtained plasma samples using the QIAamp® Circulating NA Kit (according to the handbook). In brief: • 10 ml sample input; • lysis: 1 ml Proteinase K and 8 ml Buffer ACL (QIAGEN) • binding: 18 ml Buffer ACB (QIAGEN) • wash-steps: unchanged and according to handbook • elution in 60 μl Buffer AVE (QIAGEN) 4. Analysis of the Eluates
4.1. Measurement of the blood cell stability/DNA release by the determination of DNA size distribution using a chip gel electrophoresis (2100 Bioanalyzer; Agilent Technologies; Inc., USA) according to manufacturer's instruction (see handbook Agilent DNA 7500 and DNA 12000 Kit Guide), but 1.5 μl instead of 1 μl sample were transferred to the wells.
The eluted circulating cell-free DNA was separated by size using chip gel electrophoresis (for details on the method see above, I, 4.1). […] The DMSO control and the K2E blood (not treated according to the teachings of the present invention) show the same ladder-like pattern of bands. This pattern occurs in samples where apoptosis takes place. During apoptosis, endonucleases degrade genomic DNA at inter-nucleosomal linker regions and produce DNA fragments of circa 180 bp or multiples of 180 bp. Thus, apoptosis occurs in samples which show a clear ladder-like pattern. Furthermore, the strength (darkness) of the pattern is decisive. The darker the bands, the more genomic DNA was released from the cells and thus contaminates the extracellular nucleic acid population.

whole blood samples [2] = experiment: ribosomal 18S DNA duplex real time PCR: increase of DNA in plasma of stored whole blood; type: cell-based, human; conditions: for x-fold increase of ribosomal 18S DNA in plasma: 20 μM in 10 ml blood; for x-fold increase of ribosomal 18S DNA in plasma / increase of genomic DNA in the plasma (18S DNA duplex assay): within 7 days of storage at RT
Experimental: A test system was designed, wherein cell-containing biological samples, here whole blood samples, were incubated at room temperature (RT) for up to 6 or 7 days. Therein, the sample stabilizing properties of the additives of the present invention were tested on day 0, day 3 and day 6/7 the samples.
as §1
4.2. DNA quantification with a real time PCR assay, sensitive for DNA degradation (target: 500 and 66 bp long ribosomal 18S DNA coding sequences).
(samples were diluted 1:10 before amplification)
Detection of ribosomal 18S DNA by quantitative real-time PCR, makes it possible to calculate the x-fold increase of DNA from day 0 to day 3 or 7 (calculation: division of day 3 (or 7) copies by day 0 copies).
The division of short amplicon copy number by long amplicon copy number (66 by/500 bp) indicates whether the amount of detected short or long amplicons changes over time in a similar way. A decrease of this ratio implies a stronger release of longer rather than of shorter DNA molecules and can be interpreted as release of high molecular weight genomic DNA from blood cells.
On day 0, day 3 and day 6, replicates were processed as follows. […] The collected plasma was centrifuged at 16,000×g for 10 minutes at 4° C. The cleared plasma fraction was collected and the extracellular nucleic acids were isolated using the QIAamp Circulating nucleic acid kit (1 ml input material, 60 μl elution volume). […] Values that are close to 1 imply preserved levels of ccfDNA. The higher the value, the less stabilization is achieved.

[3] = administered in rats in vivo; cited from earlier work
[4] = tested on: etoposide-induced cortical neuron death; conditions: cited from earlier work; for EC50: read-out: ED50 (the source's name)
[5] = molecular target: Bax (Bcl-2-associated X protein) (Homo sapiens, UniProt Q07812); conditions: cited from earlier work
Bax (Bcl-2-associated X protein), sequence (Q07812 whole entry): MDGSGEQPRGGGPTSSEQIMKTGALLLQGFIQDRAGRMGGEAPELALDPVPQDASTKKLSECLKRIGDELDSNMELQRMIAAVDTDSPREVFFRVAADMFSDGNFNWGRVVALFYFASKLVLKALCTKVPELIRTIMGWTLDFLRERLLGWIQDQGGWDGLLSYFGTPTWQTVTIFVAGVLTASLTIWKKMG

[6] = molecular target: T1, human recombinant caspase-1 (Homo sapiens, UniProt P29466); conditions: cited from earlier work
T1 sequence (P29466 120-404): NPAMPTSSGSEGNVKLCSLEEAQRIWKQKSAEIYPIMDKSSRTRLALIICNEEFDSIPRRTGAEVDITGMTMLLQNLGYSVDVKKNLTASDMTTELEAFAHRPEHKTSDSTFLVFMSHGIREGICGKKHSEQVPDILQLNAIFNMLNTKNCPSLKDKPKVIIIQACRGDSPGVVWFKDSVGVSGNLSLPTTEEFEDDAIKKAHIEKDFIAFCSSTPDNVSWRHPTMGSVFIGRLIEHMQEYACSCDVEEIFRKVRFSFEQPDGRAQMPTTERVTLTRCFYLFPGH

[7] = neuron culture medium at 37° C.; cited from earlier work
mitochondrial division = conditions: cited from earlier work
caspase-8 = caspase-8 (Homo sapiens, UniProt Q14790); conditions: cited from earlier work
caspase-8, sequence (Q14790 217-479, species assumed): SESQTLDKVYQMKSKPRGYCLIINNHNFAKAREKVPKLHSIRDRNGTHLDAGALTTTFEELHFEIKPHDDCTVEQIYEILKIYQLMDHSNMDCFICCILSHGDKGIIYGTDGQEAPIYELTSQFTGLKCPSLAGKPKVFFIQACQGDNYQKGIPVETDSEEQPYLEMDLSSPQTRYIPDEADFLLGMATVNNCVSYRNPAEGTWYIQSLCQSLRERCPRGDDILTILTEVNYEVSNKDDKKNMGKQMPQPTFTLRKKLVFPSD

fragmentin 2 = molecular target: T2, fragmentin 2 (Rattus norvegicus, UniProt P18291); conditions: read-out: ID50 (the source's name); cited from earlier work
T2 sequence (P18291 21-248): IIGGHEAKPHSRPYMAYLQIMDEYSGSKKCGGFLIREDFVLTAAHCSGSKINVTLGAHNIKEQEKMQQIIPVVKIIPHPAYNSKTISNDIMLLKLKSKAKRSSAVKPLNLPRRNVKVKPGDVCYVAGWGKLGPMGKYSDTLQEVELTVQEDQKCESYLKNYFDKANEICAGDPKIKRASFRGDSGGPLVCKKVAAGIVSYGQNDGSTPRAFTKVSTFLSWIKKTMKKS

anthrax lethal factor = anthrax lethal factor (Bacillus anthracis, UniProt P15917); conditions: cited from earlier work
anthrax lethal factor, sequence (P15917 34-809 limits assumed): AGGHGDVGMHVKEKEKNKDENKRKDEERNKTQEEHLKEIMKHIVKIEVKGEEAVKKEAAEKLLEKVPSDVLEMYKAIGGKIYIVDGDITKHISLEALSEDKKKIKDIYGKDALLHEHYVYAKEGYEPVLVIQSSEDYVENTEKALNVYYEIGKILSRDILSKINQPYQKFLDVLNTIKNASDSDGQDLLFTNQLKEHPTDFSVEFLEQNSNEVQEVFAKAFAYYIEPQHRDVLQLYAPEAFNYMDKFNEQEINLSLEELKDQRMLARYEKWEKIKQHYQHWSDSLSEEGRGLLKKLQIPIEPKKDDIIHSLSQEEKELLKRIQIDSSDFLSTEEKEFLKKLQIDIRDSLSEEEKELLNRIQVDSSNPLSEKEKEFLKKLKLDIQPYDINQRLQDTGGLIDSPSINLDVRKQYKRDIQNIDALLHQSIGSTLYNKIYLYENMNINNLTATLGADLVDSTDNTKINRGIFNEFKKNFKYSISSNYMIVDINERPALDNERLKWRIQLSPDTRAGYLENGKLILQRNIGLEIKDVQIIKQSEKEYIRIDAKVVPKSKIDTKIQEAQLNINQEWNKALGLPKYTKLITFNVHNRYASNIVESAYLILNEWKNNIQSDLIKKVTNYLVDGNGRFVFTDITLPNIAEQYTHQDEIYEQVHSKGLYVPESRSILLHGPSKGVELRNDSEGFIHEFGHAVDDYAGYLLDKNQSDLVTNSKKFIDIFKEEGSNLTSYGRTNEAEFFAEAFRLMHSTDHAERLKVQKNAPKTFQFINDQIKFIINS

Q: With “H-Val-Pro-Met-Leu-Lys-OH (H-VPMLK-OH) [Bax-Inhibiting Peptide, V5]” as the compound, how does the “effective concentration for Bax-mediated apoptosis” value (Bax-mediated apoptosis) read?
A: mediated apoptosis (~50-200 μM). Also effectively blocks caspase-

Q: Which “protection against cell death” value (MCF7 breast cancer cells) does the source give for `O=C(C=Cc1ccc(C=CC(=O)Nc2ccc(C3=NCCN3)cc2)cc1)Nc1ccc(C2=NCCN2)cc1` [GW 4869] here?
A: specific PLC. Reported to offer complete protection against TNF-α

Q: For `COC(=O)C[C@H](NC(=O)[C@H](C)NC(=O)[C@@H](NC(=O)OCc1ccccc1)C(C)C)C(=O)CF` [Z-Val-Ala-Asp(OMe)-FMK] (Cbz-Val-Ala-Asp(OMe)-CH2F), which “ladder-like pattern of DNA bands (release/fragmentation of genomic DNA)” value (whole blood samples [1]) is on record?
A: reduced ladder-like pattern

Q: And the “x-fold increase of ribosomal 18S DNA in plasma” value (whole blood samples [2])?
A: more prominent on day 7

Q: With `OC[C@@H](O)[C@@H](O[C@H]1O[C@H](CO)[C@@H](O)[C@H](O)[C@H]1O)[C@H](O)[C@@H](O)CO` [maltitol, 4-O-α-D-Glucopyranosyl-D-glucitol] as the compound, how does the “relative change of ccfDNA level (day X copies/day 0 copies)” value (whole blood samples [2]; concentrations ≤0.01M, room temperature up to six days) read?
A: suitable alternatives

Q: For `N=c1sc2c(n1CC(=O)c1ccc([N+](=O)[O-])cc1)CCCC2` [Pifithrin-α, p-Nitro], which “potency relative to Pifithrin-α” value [3] is on record?
A: 100-fold more potent than Pifithrin-α when adminstered in rats in

Q: What about the EC50 [4] of the same compound?
A: 0.3 µM

Q: For “Humanin, Human, Synthetic: A 24-residue anti-apoptotic peptide”, which Kd [5] is on record?
A: ~0.002 µM

Q: For “Ac-Tyr-Val-Ala-Asp-CHO [Caspase-1 Inhibitor I]”, which Ki [6] is on record?
A: 0.0002 µM

Q: What does the source list for `CC(C)C(NC(=O)c1ccc2ccccc2n1)C(=O)NC(CC(=O)O)C(=O)COc1c(F)cccc1F` (stereo not drawn) [Q-VD-OPh, Quinoline-Val-Asp-CH2-OPH]?
A: genomic DNA release/fragmentation (whole blood samples [1]; 1 μM caspase inhibitor with 21.4 mM glucose): significantly reduced the genomic DNA release/fragmentation; genomic DNA release/fragmentation (whole blood samples [1]; 4 μM caspase inhibitor with 21.4 mM glucose, compared with 1 μM): improved; ladder-like pattern of DNA bands (release/fragmentation of genomic DNA) (whole blood samples [1]): significantly reduced ladder-like patterns; increase of genomic DNA in the plasma (18S DNA duplex assay) (whole blood samples [2]; 1 μM in combination with 21 mM glucose): only a minor increase of genomic DNA; increase of genomic DNA in the plasma (18S DNA duplex assay) (whole blood samples [2]; 4 μM in combination with 21 mM glucose): ≤ 4 fold; x-fold increase of ribosomal 18S DNA in plasma (whole blood samples [2]): reduced increase of DNA

Q: Which “relative change of ccfDNA level (day X copies/day 0 copies)” value (whole blood samples [2]; 0.1, 0.05, 0.01 M tested, room temperature) does the source give for `OCC(O)C(O)C(O)C(O)CO` (stereo not drawn) [mannitol, Hexane-1,2,3,4,5,6-hexol] here?
A: stabilization effects over 3 days

Q: Which “half-life longer than Pifithrin-α” value [7] does the source give for `O=[N+]([O-])c1ccc(-c2cn3c4c(sc3n2)CCCC4)cc1` [Pifithrin-α, p-Nitro, Cyclic] here?
A: 50%

Q: And the “potency relative to Pifithrin-α” value [4]?
A: A cell-permeable p53 inhibitor that exhibits 10-fold higher potency

Q: What about the EC50 [4] of the same compound?
A: 0.03 µM

Q: Which IC50 (mitochondrial division) does the source give for `COc1cc(-n2c(=S)[nH]c3ccccc3c2=O)c(Cl)cc1Cl` [Mdivi-1, 3-(2,4-Dichloro-5-methoxyphenyl)-2,3-dihydro-2-thioxo-4(1H)-quinazolinone] here?
A: ~10 µM

Q: With `O[C@H]1[C@H](O)[C@@H](O)[C@H](O)[C@@H](O)[C@H]1O` [inositol, Cyclohexane-1,2,3,4,5,6-geksol] as the compound, how does the “relative change of ccfDNA level (day X copies/day 0 copies)” value (whole blood samples [2]; concentrations of for example 0.05 M, room temperature up to six days) read?
A: suitable alternatives

Q: Which Ki (caspase-8) does the source give for Ac-IETD-aldehyde here?
A: 0.001 µM

Q: With “Cbz-Ala-Ala-Asp-CH2Cl [Granzyme B Inhibitor I]” as the compound, how does the IC50 (fragmentin 2) read?
A: 0.3 µM

Q: Which effect on activity (anthrax lethal factor) does the source give for `FC(F)(F)c1cccc(-c2csc(C3COc4ccccc4O3)n2)c1` (stereo not drawn) [Caspase Inhibitor X] here?
A: assisted cleavage of BID, a proapoptotic protein. Weakly affects
